Results from patent US9983218B2, “Indole and indoline derivatives and methods of use thereof” (AbbVie Inc., priority 2008, dated 2018).
Read-outs that look alike come from different tables or passages of the source.

Test system: SK-N-SH human neuroblastoma cells
Assay: Serum deprivation/JC-1 mitochondrial membrane potential (MMP) assay
Format: cell-based
Settings: Homo sapiens; for Emax: read-out: JC-1 max %
Procedure, shortened: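 Cells were serum-deprived ~18 h in MEM with or without compound (DMSO ≤1%), then stained with JC-1 for 35 min at 37° C. The red/green fluorescence ratio (560/595 vs 485/535 nm) was normalized to the peak response of 10 μM dimebolin. EC50 came from one curve fit to mean data (n=2-3, duplicates).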

[1] = SK-N-SH, percent maximal intensity in JC-1 ratio normalized to 10 μM dimebolin
[2] = SK-N-SH cells, serum deprivation ~18 hours, JC-1 ratio normalized to peak value for 10 μM dimebolin, single curve fit to mean data of n=2-3, read-out: EC50

SMILES | Emax [1] [%] | EC50 [2] [µM] | EC50 (SK-N-SH, 18 h) [µM] | Emax (SK-N-SH) [%]
Cc1ccc2c(c1)[C@@H]1[C@H]3CC[C@@H](C[C@@H]1N2CCc1ccc(C)nc1)N3C [Example 113, (5aS,7S,10R,10aR)-2,11-dimethyl-5-[2-(6-methylpyridin-3-yl)ethyl]-5,5a,6,7,8,9,10,10a-octahydro-7,10-epiminocyclohepta[b]indole] | 353 | 2.99 | – | –
NC(=O)c1ccc(-n2c3c(c4ccccc42)CN2CCC3CC2)nc1 [Example 266, 6-(1,3,4,5-tetrahydro-6H-2,5-ethanoazepino[4,3-b]indol-6-yl)nicotinamide] | 127 | 10.7 | – | –
Cc1ccc2c(c1)c1c(n2CCOc2ccc(F)cc2)CC2CCC1N2C (centres unmarked) [Example 67, 5-[2-(4-fluorophenoxy)ethyl]-2,11-dimethyl-5,6,7,8,9,10-hexahydro-7,10-epiminocyclohepta[b]indole] | 132 | 6.49 | – | –
Cc1ccc2c(c1)[C@@H]1CN3CCC(CC3)[C@@H]1N2CCc1ccc(C)nc1 (single isomer, unassigned) [Example 159] | 240 | 2.67 | – | –
Fc1ccc2c(c1)c1c(n2-c2ccc3ncncc3c2)C2CCN(CC2)C1 [Example 227, 9-fluoro-6-quinazolin-6-yl-3,4,5,6-tetrahydro-1H-2,5-ethanoazepino[4,3-b]indole] | 266 | 3.62 | – | –
CN1C2CCC1c1c(n(CCc3ccc(Cl)cc3)c3ccc(OC(F)(F)F)cc13)C2 (centres unmarked) [Example 97, 5-[2-(4-chlorophenyl)ethyl]-11-methyl-2-(trifluoromethoxy)-5,6,7,8,9,10-hexahydro-7,10-epiminocyclohepta[b]indole] | – | – | 5.13 | 164
Cc1ccc(CCn2c3c(c4cc(OC(F)(F)F)ccc42)CN2CCC3CC2)cn1 [Example 178, 6-[2-(6-methylpyridin-3-yl)ethyl]-9-(trifluoromethoxy)-3,4,5,6-tetrahydro-1H-2,5-ethanoazepino[4,3-b]indole] | 192 | 4.17 | – | –
Fc1ccc2c(c1)c1c(n2Cc2cn3cccnc3n2)C2CCN(CC2)C1 [Example 254, 9-fluoro-6-(imidazo[1,2-a]pyrimidin-2-ylmethyl)-3,4,5,6-tetrahydro-1H-2,5-ethanoazepino[4,3-b]indole] | 57.1 | 8.09 | – | –
O=c1cccnn1-c1ccc(-n2c3c(c4ccccc42)CN2CCC3CC2)cc1 [Example 287, 2-[4-(1,3,4,5-tetrahydro-6H-2,5-ethanoazepino[4,3-b]indol-6-yl)phenyl]pyridazin-3(2H)-one] | 209 | 1.53 | – | –
CN(CC1OCCO1)c1ccc(Cn2c3c(c4cc(F)ccc42)CN2CCC3CC2)cn1 [Example 243, N-(1,3-dioxolan-2-ylmethyl)-5-[(9-fluoro-1,3,4,5-tetrahydro-6H-2,5-ethanoazepino[4,3-b]indol-6-yl)methyl]-N-methylpyridin-2-amine] | 169 | 8.36 | – | –
Fc1ccc2c(c1)c1c(n2Cc2ccnc(F)c2)C2CCN(CC2)C1 [Example 191, 9-fluoro-6-[(2-fluoropyridin-4-yl)methyl]-3,4,5,6-tetrahydro-1H-2,5-ethanoazepino[4,3-b]indole] | 112 | 7.04 | – | –
COc1cccc2c3c(n(CCc4ccc(Cl)cc4)c12)CC1CCC3N1C (centres unmarked) [Example 96, 5-[2-(4-chlorophenyl)ethyl]-4-methoxy-11-methyl-5,6,7,8,9,10-hexahydro-7,10-epiminocyclohepta[b]indole] | 169 | 4.41 | – | –
CC1CCCN1c1ccc(Cn2c3c(c4cc(F)ccc42)CN2CCC3CC2)cn1 (centres unmarked) [Example 240, 9-fluoro-6-{[6-(2-methylpyrrolidin-1-yl)pyridin-3-yl]methyl}-3,4,5,6-tetrahydro-1H-2,5-ethanoazepino[4,3-b]indole] | 170 | 3.33 | – | –
Cc1ccc2c(c1)c1c(n2CCc2ccc(C)nc2)CC2CCC1N2S(=O)(=O)c1ccc(C(F)(F)F)cc1 (centres unmarked) [Example 18, 2-methyl-5-[2-(6-methylpyridin-3-yl)ethyl]-11-{[4-(trifluoromethyl)phenyl]sulfonyl}-5,6,7,8,9,10-hexahydro-7,10-epiminocyclohepta[b]indole] | 307 | 3.19 | – | –
Fc1ccc(CCn2c3c(c4cc(F)ccc42)CN2CCC3CC2)cc1 [Example 163, 9-fluoro-6-[2-(4-fluorophenyl)ethyl]-3,4,5,6-tetrahydro-1H-2,5-ethanoazepino[4,3-b]indole] | 140 | 4.03 | – | –
Fc1ccc2c(c1)c1c(n2Cc2cnc(-c3ccccc3)nc2)C2CCN(CC2)C1 [Example 249, 9-fluoro-6-[(2-phenylpyrimidin-5-yl)methyl]-3,4,5,6-tetrahydro-1H-2,5-ethanoazepino[4,3-b]indole] | 133 | 5.27 | – | –
COc1ccc2c(c1)c1c(n2CCc2ccc(Cl)cc2)C[C@@H]2CC[C@H]1N2C (single isomer, unassigned) [Example 93] | 186 | 4.81 | – | –
CN1C2CCC1c1c(n(CCc3ccc(Cl)cc3)c3ccc(Br)cc13)C2 (centres unmarked) [Example 87, 2-bromo-5-[2-(4-chlorophenyl)ethyl]-11-methyl-5,6,7,8,9,10-hexahydro-7,10-epiminocyclohepta[b]indole] | 139 | 3.33 | – | –
Cc1ccc2c(c1)c1c(n2CCc2ccc(Cl)cc2)C[C@H]2CC[C@@H]1N2C [Example 44, (7R,10S)-5-[2-(4-chlorophenyl)ethyl]-2,11-dimethyl-5,6,7,8,9,10-hexahydro-7,10-epiminocyclohepta[b]indole] | 291 | 3.31 | – | –
Cc1ccc(/C=C\n2c3c(c4cc(C)ccc42)[C@@H]2CC[C@H](C3)N2C)cc1 (single isomer, unassigned) [Example 61] | 211 | 4.37 | – | –
Cc1ccc2c(c1)c1c(n2CCc2cnc(C)nc2)C[C@@H]2CC[C@H]1N2C [Example 32, (7S,10R)-2,11-dimethyl-5-[2-(2-methylpyrimidin-5-yl)ethyl]-5,6,7,8,9,10-hexahydro-7,10-epiminocyclohepta[b]indole] | 53 | 17.3 | – | –
Cc1ccc2c(c1)c1c(n2/C=C/c2ccc(C)nc2)CC2CCCC1N2C (centres unmarked) [Example 122, 2,12-dimethyl-5-[(E)-2-(6-methylpyridin-3-yl)vinyl]-6,7,8,9,10,11-hexahydro-5H-7,11-epiminocycloocta[b]indole] | 141 | 5.29 | – | –
Cc1ccc2c(c1)c1c(n2CCc2ccc(Cl)nc2)C2CC3CC1CN(C3)C2 (centres unmarked) [Example 196, 8-[2-(6-chloropyridin-3-yl)ethyl]-11-methyl-1,4,5,6,7,8-hexahydro-2H-1,5:3,7-dimethanoazonino[5,4-b]indole] | 182 | 3.91 | – | –
CCN1C2CCC1c1c(n(CCc3ccc(C)nc3)c3ccc(C)cc13)C2 (centres unmarked) [Example 12, 11-ethyl-2-methyl-5-[2-(6-methylpyridin-3-yl)ethyl]-5,6,7,8,9,10-hexahydro-7,10-epiminocyclohepta[b]indole] | 181 | 5.58 | – | –
c1ccc2c(c1)c1c(n2-c2ccc3c(c2)CCNC3)C2CCN(CC2)C1 [Example 267, 6-(1,2,3,4-tetrahydroisoquinolin-6-yl)-3,4,5,6-tetrahydro-1H-2,5-ethanoazepino[4,3-b]indole] | 70 | 9.72 | – | –
